Assay results from patent US20090215778A1, “Alpha-substituted Arylmethyl Piperazine Pyrazolo [1,5-alpha]Pyrimidine Amide Derivatives” (priority 2007, published 2009).

How the values were obtained:
HIV-1, NL4-3 strain = assay: Virus infection assay (virus entry and single-cycle infection); assay type: cell-based; conditions: Human immunodeficiency virus 1, NL43, TZM-b1, read-out: Nl4
How it was run: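 TZM-b1 cells (CD4, CXCR4, CCR5; LTR-driven lacZ/luciferase reporters) were infected with HIV-1 NL4-3 (MOI 0.01) with 80 μg/mL DEAE-dextran in the presence of test compound, 4 h at 37 °C before adding complete medium. Infection was quantified one day post-infection as chemiluminescent β-galactosidase signal.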

[1] = target: T1, HIV Env six-helix bundle (6HB) structure (Human immunodeficiency virus type 1 group M subtype B, UniProt P04579); assay: Six-helix bundle (6HB) assay; assay type: cell-based, HIV-1 (strain RF)
T1 construct: H9 cells chronically infected with HIV-1 (H9/HIV-1RF); endogenous in cells; host or cells: H9 cells chronically infected with HIV-1 strain RF (Env is made from the virus in the infected cells, not by transfection)
T1 sequence (P04579 32-519): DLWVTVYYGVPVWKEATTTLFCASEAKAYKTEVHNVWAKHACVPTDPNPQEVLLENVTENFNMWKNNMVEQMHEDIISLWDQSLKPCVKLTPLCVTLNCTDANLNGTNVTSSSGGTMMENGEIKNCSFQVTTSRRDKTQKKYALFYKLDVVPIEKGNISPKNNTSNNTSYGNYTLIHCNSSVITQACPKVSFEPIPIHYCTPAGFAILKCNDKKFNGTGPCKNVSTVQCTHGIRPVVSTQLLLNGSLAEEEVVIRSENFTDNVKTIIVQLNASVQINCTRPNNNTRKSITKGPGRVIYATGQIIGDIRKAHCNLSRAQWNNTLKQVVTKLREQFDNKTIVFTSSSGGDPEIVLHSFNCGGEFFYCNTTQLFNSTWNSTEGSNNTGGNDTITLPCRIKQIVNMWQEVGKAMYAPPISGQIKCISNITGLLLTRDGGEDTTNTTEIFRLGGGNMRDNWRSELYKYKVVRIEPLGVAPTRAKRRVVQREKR
T1 sequence (P04579 520-865): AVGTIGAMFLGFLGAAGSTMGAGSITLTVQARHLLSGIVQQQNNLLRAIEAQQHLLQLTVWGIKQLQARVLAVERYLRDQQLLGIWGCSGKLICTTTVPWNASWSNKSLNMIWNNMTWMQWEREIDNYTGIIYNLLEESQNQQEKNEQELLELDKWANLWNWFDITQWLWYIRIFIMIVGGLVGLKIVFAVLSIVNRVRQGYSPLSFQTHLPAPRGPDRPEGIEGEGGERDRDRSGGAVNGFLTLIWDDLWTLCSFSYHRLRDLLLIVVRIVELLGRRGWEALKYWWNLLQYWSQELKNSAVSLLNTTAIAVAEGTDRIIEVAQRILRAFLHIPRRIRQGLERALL
How it was run: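 Chronically HIV-1 RF-infected H9 cells (12-40 days post-infection), 2.5×10^5 per well, were preincubated with compound for 30 min at 37 °C. sCD4 at 1 μg/mL was added for 1 h to trigger Env changes. 6HB-specific rabbit serum (1 h, 37 °C) was then added, followed by PE anti-rabbit (45 min, 4 °C), with flow cytometric fluorescence read-out.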

SMILES	IC50 (HIV-1, NL4-3 strain)	IC50 [1]
COc1ccc(-c2nc3c(C(=O)N4CCN(C(CO)c5c(F)cccc5F)C[C@H]4C)cnn3c(C(F)(F)F)c2C)cc1 (stereo partly drawn) [methanone, [(2R)-4-[1-(2,6-difluorophenyl)-2-hydroxyethyl]-2-methyl-1-piperazinyl][5-(4-methoxyphenyl)-6-methyl-7-(trifluoromethyl)pyrazolo[1,5-α]pyrimidin-3-yl]-]	< 1000 nM	< 1000 nM
COc1ccc(-c2nc3c(C(=O)N4CCN(C(CO)c5ccc(OC)nc5OC)C[C@H]4C)cnn3c(C(F)(F)F)c2C)cc1 (stereo partly drawn) [methanone, [(2R)-4-[1-(2,6-dimethoxy-3-pyridinyl)-2-hydroxyethyl]-2-methyl-1-piperazinyl][5-(4-methoxyphenyl)-6-methyl-7-(trifluoromethyl)pyrazolo[1,5-α]pyrimidin-3-yl]-]	< 1000 nM	< 1000 nM
COc1ccc(-c2nc3c(C(=O)N4CCN(C(CO)c5ccccc5N)C[C@H]4C)cnn3c(C(F)(F)F)c2C)cc1 (stereo partly drawn) [methanone, [(2R)-4-[1-(2-aminophenyl)-2-hydroxyethyl]-2-methyl-1-piperazinyl][5-(4-methoxyphenyl)-6-methyl-7-(trifluoromethyl)pyrazolo[1,5-α]pyrimidin-3-yl]-]	1100 to 10000 nM	1100 to 10000 nM
COc1ccc(-c2nc3c(C(=O)N4CCN(C(CO)c5cc6ccccc6o5)C[C@H]4C)cnn3c(C(F)(F)F)c2C)cc1 (stereo partly drawn) [methanone, [(2R)-4-[1-(2-benzofuranyl)-2-hydroxyethyl]-2-methyl-1-piperazinyl][5-(4-methoxyphenyl)-6-methyl-7-(trifluoromethyl)pyrazolo[1,5-α]pyrimidin-3-yl]-]	< 1000 nM	< 1000 nM
COc1ccc(-c2nc3c(C(=O)N4CCN(C(CO)c5ccccc5Br)C[C@H]4C)cnn3c(C(F)(F)F)c2C)cc1 (stereo partly drawn) [methanone, [(2R)-4-[1-(2-bromophenyl)-2-hydroxyethyl]-2-methyl-1-piperazinyl][5-(4-methoxyphenyl)-6-methyl-7-(trifluoromethyl)pyrazolo[1,5-α]pyrimidin-3-yl]-]	< 1000 nM	< 1000 nM
COc1ccc(-c2nc3c(C(=O)N4CCN(C(CO)c5cccnc5Cl)C[C@H]4C)cnn3c(C(F)(F)F)c2C)cc1 (stereo partly drawn) [methanone, [(2R)-4-[1-(2-chloro-3-pyridinyl)-2-hydroxyethyl]-2-methyl-1-piperazinyl][5-(4-methoxyphenyl)-6-methyl-7-(trifluoromethyl)pyrazolo[1,5-α]pyrimidin-3-yl]-]	< 1000 nM	< 1000 nM
COc1ccc(-c2nc3c(C(=O)N4CCN(C(CO)c5ccccc5Cl)C[C@H]4C)cnn3c(C(F)(F)F)c2C)cc1 (stereo partly drawn) [methanone, [(2R)-4-[1-(2-chlorophenyl)-2-hydroxyethyl]-2-methyl-1-piperazinyl][5-(4-methoxyphenyl)-6-methyl-7-(trifluoromethyl)pyrazolo[1,5-α]pyrimidin-3-yl]-]	< 1000 nM	< 1000 nM
CCOc1ncccc1C(CO)N1CCN(C(=O)c2cnn3c(C(F)(F)F)c(C)c(-c4ccc(OC)cc4)nc23)[C@H](C)C1 (stereo partly drawn) [methanone, [(2R)-4-[1-(2-ethoxy-3-pyridinyl)-2-hydroxyethyl]-2-methyl-1-piperazinyl][5-(4-methoxyphenyl)-6-methyl-7-(trifluoromethyl)pyrazolo[1,5-α]pyrimidin-3-yl]-]	< 1000 nM	< 1000 nM
CCOc1ccccc1C(CO)N1CCN(C(=O)c2cnn3c(C(F)(F)F)c(C)c(-c4ccc(OC)cc4)nc23)[C@H](C)C1 (stereo partly drawn) [methanone, [(2R)-4-[1-(2-ethoxyphenyl)-2-hydroxyethyl]-2-methyl-1-piperazinyl][5-(4-methoxyphenyl)-6-methyl-7-(trifluoromethyl)pyrazolo[1,5-α]pyrimidin-3-yl]-]	< 1000 nM	< 1000 nM
COc1ccc(-c2nc3c(C(=O)N4CCN(C(CO)c5cccc(OC)c5F)C[C@H]4C)cnn3c(C(F)(F)F)c2C)cc1 (stereo partly drawn) [methanone, [(2R)-4-[1-(2-fluoro-3-methoxyphenyl)-2-hydroxyethyl]-2-methyl-1-piperazinyl][5-(4-methoxyphenyl)-6-methyl-7-(trifluoromethyl)pyrazolo[1,5-α]pyrimidin-3-yl]-]	< 1000 nM	< 1000 nM
COc1ccc(-c2nc3c(C(=O)N4CCN(C(CO)c5c(F)cccc5OC)C[C@H]4C)cnn3c(C(F)(F)F)c2C)cc1 (stereo partly drawn) [methanone, [(2R)-4-[1-(2-fluoro-6-methoxyphenyl)-2-hydroxyethyl]-2-methyl-1-piperazinyl][5-(4-methoxyphenyl)-6-methyl-7-(trifluoromethyl)pyrazolo[1,5-α]pyrimidin-3-yl]-]	< 1000 nM	< 1000 nM
COc1ccc(-c2nc3c(C(=O)N4CCN(C(CO)c5ccccc5F)C[C@H]4C)cnn3c(C(F)(F)F)c2C)cc1 (stereo partly drawn) [methanone, [(2R)-4-[1-(2-fluorophenyl)-2-hydroxyethyl]-2-methyl-1-piperazinyl][5-(4-methoxyphenyl)-6-methyl-7-(trifluoromethyl)pyrazolo[1,5-α]pyrimidin-3-yl]-]	< 1000 nM	< 1000 nM
COc1ccc(-c2nc3c(C(=O)N4CCN(C(CO)c5ccccc5F)C[C@H]4C)cnn3c(C(F)(F)F)c2C)cn1 (stereo partly drawn) [methanone, [(2R)-4-[1-(2-fluorophenyl)-2-hydroxyethyl]-2-methyl-1-piperazinyl][5-(6-methoxy-3-pyridinyl)-6-methyl-7-(trifluoromethyl)pyrazolo[1,5-α]pyrimidin-3-yl]-]	< 1000 nM	< 1000 nM
COc1ccc(-c2nc3c(C(=O)N4CCN(C(CO)c5ccco5)C[C@H]4C)cnn3c(C(F)(F)F)c2C)cc1 (stereo partly drawn) [methanone, [(2R)-4-[1-(2-furanyl)-2-hydroxyethyl]-2-methyl-1-piperazinyl][5-(4-methoxyphenyl)-6-methyl-7-(trifluoromethyl)pyrazolo[1,5-α]pyrimidin-3-yl]-]	< 1000 nM	< 1000 nM
COc1ccc(-c2nc3c(C(=O)N4CCN(C(CO)c5cc(F)cc(F)c5OC)C[C@H]4C)cnn3c(C(F)(F)F)c2C)cc1 (stereo partly drawn) [methanone, [(2R)-4-[1-(3,5-difluoro-2-methoxyphenyl)-2-hydroxyethyl]-2-methyl-1-piperazinyl][5-(4-methoxyphenyl)-6-methyl-7-(trifluoromethyl)pyrazolo[1,5-α]pyrimidin-3-yl]-]	< 1000 nM	< 1000 nM
COc1ccc(-c2nc3c(C(=O)N4CCN(C(CO)c5cc(F)cc(F)c5)C[C@H]4C)cnn3c(C(F)(F)F)c2C)cc1 (stereo partly drawn) [methanone, [(2R)-4-[1-(3,5-difluorophenyl)-2-hydroxyethyl]-2-methyl-1-piperazinyl][5-(4-methoxyphenyl)-6-methyl-7-(trifluoromethyl)pyrazolo[1,5-α]pyrimidin-3-yl]-]	< 1000 nM	< 1000 nM
COc1ccc(-c2nc3c(C(=O)N4CCN(C(CO)c5cccc(N)c5)C[C@H]4C)cnn3c(C(F)(F)F)c2C)cc1 (stereo partly drawn) [methanone, [(2R)-4-[1-(3-aminophenyl)-2-hydroxyethyl]-2-methyl-1-piperazinyl][5-(4-methoxyphenyl)-6-methyl-7-(trifluoromethyl)pyrazolo[1,5-α]pyrimidin-3-yl]-]	< 1000 nM	< 1000 nM
COc1ccc(-c2nc3c(C(=O)N4CCN(C(CO)c5cccc(Br)c5)C[C@H]4C)cnn3c(C(F)(F)F)c2C)cc1 (stereo partly drawn) [methanone, [(2R)-4-[1-(3-bromophenyl)-2-hydroxyethyl]-2-methyl-1-piperazinyl][5-(4-methoxyphenyl)-6-methyl-7-(trifluoromethyl)pyrazolo[1,5-α]pyrimidin-3-yl]-]	< 1000 nM	< 1000 nM
COc1ccc(-c2nc3c(C(=O)N4CCN(C(CO)c5cccc(Cl)c5)C[C@H]4C)cnn3c(C(F)(F)F)c2C)cc1 (stereo partly drawn) [methanone, [(2R)-4-[1-(3-chlorophenyl)-2-hydroxyethyl]-2-methyl-1-piperazinyl][5-(4-methoxyphenyl)-6-methyl-7-(trifluoromethyl)pyrazolo[1,5-α]pyrimidin-3-yl]-]	< 1000 nM	< 1000 nM
COc1ccc(-c2nc3c(C(=O)N4CCN(C(CO)c5cc(F)cc(OC)c5)C[C@H]4C)cnn3c(C(F)(F)F)c2C)cc1 (stereo partly drawn) [methanone, [(2R)-4-[1-(3-fluoro-5-methoxyphenyl)-2-hydroxyethyl]-2-methyl-1-piperazinyl][5-(4-methoxyphenyl)-6-methyl-7-(trifluoromethyl)pyrazolo[1,5-α]pyrimidin-3-yl]-]	< 1000 nM	< 1000 nM
COc1ccc(-c2nc3c(C(=O)N4CCN(C(CO)c5cccc(F)c5)C[C@H]4C)cnn3c(C(F)(F)F)c2C)cc1 (stereo partly drawn) [methanone, [(2R)-4-[1-(3-fluorophenyl)-2-hydroxyethyl]-2-methyl-1-piperazinyl][5-(4-methoxyphenyl)-6-methyl-7-(trifluoromethyl)pyrazolo[1,5-α]pyrimidin-3-yl]-]	< 1000 nM	< 1000 nM
COc1ccc(-c2nc3c(C(=O)N4CCN(C(CO)c5ccoc5)C[C@H]4C)cnn3c(C(F)(F)F)c2C)cc1 (stereo partly drawn) [methanone, [(2R)-4-[1-(3-furanyl)-2-hydroxyethyl]-2-methyl-1-piperazinyl][5-(4-methoxyphenyl)-6-methyl-7-(trifluoromethyl)pyrazolo[1,5-α]pyrimidin-3-yl]-]	< 1000 nM	< 1000 nM
COc1ccc(-c2nc3c(C(=O)N4CCN(C(CO)c5ccc(F)cc5OC)C[C@H]4C)cnn3c(C(F)(F)F)c2C)cc1 (stereo partly drawn) [methanone, [(2R)-4-[1-(4-fluoro-2-methoxyphenyl)-2-hydroxyethyl]-2-methyl-1-piperazinyl][5-(4-methoxyphenyl)-6-methyl-7-(trifluoromethyl)pyrazolo[1,5-α]pyrimidin-3-yl]-]	< 1000 nM	< 1000 nM
